Data on 22 molecules can be found in US20240190890A1, “MK2 INHIBITORS AND USES THEREOF” (Bristol-Myers Squibb Company, priority 2022, published 2024).

Broadly, the IC50 is the concentration needed to halve the response being measured.

Each structure is given as a SMILES string.

Chain of p38a activated, mitogen-activated protein kinase-activated protein kinase 2 (MAPKAP-K2 or MK2) enzyme (P49137 whole entry): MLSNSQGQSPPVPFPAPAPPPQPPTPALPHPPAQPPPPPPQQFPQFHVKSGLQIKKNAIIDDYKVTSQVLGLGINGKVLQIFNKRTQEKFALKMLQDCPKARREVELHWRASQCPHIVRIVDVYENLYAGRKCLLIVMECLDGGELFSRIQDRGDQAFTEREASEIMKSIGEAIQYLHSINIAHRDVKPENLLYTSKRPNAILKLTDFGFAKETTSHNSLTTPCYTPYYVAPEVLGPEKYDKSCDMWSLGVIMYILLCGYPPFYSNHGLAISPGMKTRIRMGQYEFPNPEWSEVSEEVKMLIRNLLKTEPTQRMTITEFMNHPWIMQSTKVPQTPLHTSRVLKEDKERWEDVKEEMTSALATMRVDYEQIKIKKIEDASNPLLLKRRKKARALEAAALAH

The target in the experiment is p38a activated, mitogen-activated protein kinase-activated protein kinase 2 (MAPKAP-K2 or MK2) enzyme (Homo sapiens (Human), UniProt P49137). Kind of experiment: MK2 Omnia continuous-read kinase assay for compound potency. Format: biochemical. Particulars: [MK-2]=0.4 nM, [ATP]=10 μM, [ST3-Sox]=10 μM; room temperature. The source says:
Mitogen-Activated Protein Kinase-Activated Protein Kinase 2 Omnia® Assay for Compound Potency Assessment:
The protocol below describes a continuous-read kinase assay optimized to measure potency of compounds against p38a activated, mitogen-activated protein kinase-activated protein kinase 2 (MAPKAP-K2 or MK2) enzyme. Further details of this assay are described by Life Technologies, Carlsbad, CA on their website at the following URL: http://tools.lifetechnologies.com/content/sfs/manuals/omnia_kinase_assay_man.pdf. • [Reagent] used: • [MK-2]=0.4 nM, • [ATP]=10 μM and • [ST3-Sox]=10 μM (ATP^appKM=10 μM)
Briefly, 10× stock solutions of MK2 (PV3317, from Life Technologies), 1.13X ATP (AS001A), and Sox conjugated peptide substrate, S/T3-Sox, (KZN1031) were prepared in 1× kinase reaction buffer consisting of 20 mM Tris, pH 7.5, 5 mM MgCl2, 1 mM EGTA, 5 mM β-glycerophosphate, 5% glycerol (10× stock, KB001A) and 0.2 mM DTT (DS001A). Enzyme solution (5 μL) was added to each of DMSO ([…]) or serially diluted test compounds prepared in DMSO in a Corning (#3574) 384-well, white, non-binding surface microtiter plate (Corning, NY). Kinase reactions were started with the addition of 45 μL of the ATP-peptide substrate S/T3-Sox mix and monitored every 71 seconds for 120 minutes at λex360/λem485 in a Synergy H4 plate reader from BioTek (Winooski, VT) at room temperature.
Background signals from the no enzyme control wells were subtracted from all progress curves. The initial linear portions of the net progress curves were fit according to a linear equation to yield the slope and percentage of inhibition (% inhibition) at each compound concentration. The net progress curves obtained during the first two hours of reactions were also fit according to an ascending single-exponential equation (Eq. 1) to yield kobs values at each compound concentration. Plots of % Inhibition versus inhibitor concentrations were fit according to a dose-response equation (Eq. 2) to generate IC50 and Hill slope values while plots of kobs versus inhibitor concentration were fit according to Equation 3 (Eq. 3) to generate apparent kinact/K1 values using the GraphPad PRISM software (Version 6.00; GraphPad San Diego, CA).
where F is the fluorescence intensity from the plate reader, V0 is a constant reflecting the relationship between the instrument readout and product concentration, t is time, e is Euler's number, and kobs is the observed inactivation rate constant.
where % Inhibition is percentage of inhibition, IC50 is half maximal inhibitory concentration, [I] is the inhibitor concentration, and n is the Hill slope.
where kobs is the observed inactivation rate constant, kinact is the apparent inactivation rate constant, K1 is the apparent inhibition constant, and [I] is the inhibitor concentration. […] Potency results for the compounds tested are shown in Table 4 in the column entitled “MK2 IC50.”
For the molecule `C/C=C/c1ncc(F)c(-c2ccc3c(ccc4sc5c(c43)NC[C@@H](C)NC5=O)n2)n1` [Example I-45, (R,E)-3-(5-fluoro-2-(prop-1-en-1-yl)pyrimidin-4-yl)-10-methyl-9,10,11,12-tetrahydro-8H-[1,4]diazepino[5′,6′:4,5]thieno[3,2-f]quinolin-8-one], the IC50 is 160 nM. In the case of `C/C=C\c1ncc(F)c(-c2ccc3c(ccc4sc5c(c43)NC[C@@H](C)NC5=O)n2)n1` [Example I-46, (R,Z)-3-(5-fluoro-2-(prop-1-en-1-yl)pyrimidin-4-yl)-10-methyl-9,10,11,12-tetrahydro-8H-[1,4]diazepino[5′,6′:4,5]thieno[3,2-f]quinolin-8-one], the IC50 came to 765 nM.

`C=C(C)c1ncc(F)c(-c2ccc3c(ccc4sc5c(c43)NC[C@@H](C)NC5=O)n2)n1` [Example I-47, (R)-3-(5-fluoro-2-(prop-1-en-2-yl)pyrimidin-4-yl)-10-methyl-9,10,11,12-tetrahydro-8H-[1,4]diazepino[5′,6′:4,5]thieno[3,2-f]quinolin-8-one]: the IC50 is 429 nM. Then `C/C=C/c1ncc(COCC)c(-c2ccc3c(ccc4sc5c(c43)NC[C@@H](C)NC5=O)n2)n1` [Example I-48, (R,E)-3-(5-(ethoxymethyl)-2-(prop-1-en-1-yl)pyrimidin-4-yl)-10-methyl-9,10,11,12-tetrahydro-8H-[1,4]diazepino[5′,6′:4,5]thieno[3,2-f]quinolin-8-one], with 371 nM; and `C/C=C\c1ncc(COCC)c(-c2ccc3c(ccc4sc5c(c43)NC[C@@H](C)NC5=O)n2)n1` [Example I-49, (R,Z)-3-(5-(ethoxymethyl)-2-(prop-1-en-1-yl)pyrimidin-4-yl)-10-methyl-9,10,11,12-tetrahydro-8H-[1,4]diazepino[5′,6′:4,5]thieno[3,2-f]quinolin-8-one], with 474 nM; and `C=C(C)c1ncc(COCC)c(-c2ccc3c(ccc4sc5c(c43)NC[C@@H](C)NC5=O)n2)n1` [Example I-50, (R)-3-(5-(ethoxymethyl)-2-(prop-1-en-2-yl)pyrimidin-4-yl)-10-methyl-9,10,11,12-tetrahydro-8H-[1,4]diazepino[5′,6′:4,5]thieno[3,2-f]quinolin-8-one], with 1000 nM. Take `C#Cc1cc(-c2ccc3c(ccc4sc5c(c43)NC[C@@H](C)NC5=O)n2)cnn1` [Example I-51, (R)-3-(6-ethynylpyridazin-4-yl)-10-methyl-9,10,11,12-tetrahydro-8H-[1,4]diazepino[5′,6′:4,5]thieno[3,2-f]quinolin-8-one]: the IC50 was determined as 3 nM.

On to `C[C@@H]1CNc2c(sc3ccc4nc(-c5cccc(Cl)n5)ccc4c23)C(=O)N1` [Example I-52, (R)-3-(6-chloropyridin-2-yl)-10-methyl-9,10,11,12-tetrahydro-8H-[1,4]diazepino[5′,6′:4,5]thieno[3,2-f]quinolin-8-one], for which the half-inhibitory concentration (IC50) was 116 nM. Then `CC#Cc1nccc(-c2ccc3c(ccc4sc5c(c43)NC[C@@H](C)NC5=O)n2)n1` [Example I-53, (R)-10-methyl-3-(2-(prop-1-yn-1-yl)pyrimidin-4-yl)-9,10,11,12-tetrahydro-8H-[1,4]diazepino[5′,6′:4,5]thieno[3,2-f]quinolin-8-one], with 213 nM; and `C=Cc1cccc(-c2ccc3c(ccc4sc5c(c43)NC[C@@H](C)NC5=O)n2)n1` [Example I-54, (R)-10-methyl-3-(6-vinylpyridin-2-yl)-9,10,11,12-tetrahydro-8H-[1,4]diazepino[5′,6′:4,5]thieno[3,2-f]quinolin-8-one], with 61 nM. Under `C=Cc1cc(-c2ccc3c(ccc4sc5c(c43)NC[C@@H](C)NC5=O)n2)ccn1` [Example I-55, (R)-10-methyl-3-(2-vinylpyridin-4-yl)-9,10,11,12-tetrahydro-8H-[1,4]diazepino[5′,6′:4,5]thieno[3,2-f]quinolin-8-one] stands 1 nM; under `C#Cc1cccc(-c2ccc3c(ccc4sc5c(c43)NC[C@@H](C)NC5=O)n2)n1` [Example I-56, (R)-3-(6-ethynylpyridin-2-yl)-10-methyl-9,10,11,12-tetrahydro-8H-[1,4]diazepino[5′,6′:4,5]thieno[3,2-f]quinolin-8-one], 194 nM.

With `C#Cc1cc(-c2ccc3c(ccc4sc5c(c43)NC[C@@H](C)NC5=O)n2)ccn1` [Example I-57, (R)-3-(2-ethynylpyridin-4-yl)-10-methyl-9,10,11,12-tetrahydro-8H-[1,4]diazepino[5′,6′:4,5]thieno[3,2-f]quinolin-8-one], the IC50 amounted to 117 nM. Under `C[C@@H]1CNc2c(sc3ccc4nc(-c5cc(Cl)nc(Cl)n5)ccc4c23)C(=O)N1` [Example I-58, (R)-3-(2,6-dichloropyrimidin-4-yl)-10-methyl-9,10,11,12-tetrahydro-8H-[1,4]diazepino[5′,6′:4,5]thieno[3,2-f]quinolin-8-one] stands 16 nM. As for `C#Cc1cc(-c2ccc3c(ccc4sc5c(c43)NC[C@@H](C)NC5=O)n2)nc(N2CCN(C)CC2)n1` [Example I-59, (R)-3-(6-ethynyl-2-(4-methylpiperazin-1-yl)pyrimidin-4-yl)-10-methyl-9,10,11,12-tetrahydro-8H-[1,4]diazepino[5′,6′:4,5]thieno[3,2-f]quinolin-8-one], the IC50 was determined as 3 nM. Under `C#Cc1nc(-c2ccc3c(ccc4sc5c(c43)NC[C@@H](C)NC5=O)n2)cc(N2CCN(C)CC2)n1` [Example I-60, (R)-3-(2-ethynyl-6-(4-methylpiperazin-1-yl)pyrimidin-4-yl)-10-methyl-9,10,11,12-tetrahydro-8H-[1,4]diazepino[5′,6′:4,5]thieno[3,2-f]quinolin-8-one] stands 58 nM. Then `C#Cc1cc(N2CCN(C)CC2)nc(-c2ccc3c(ccc4sc5c(c43)NC[C@@H](C)NC5=O)n2)n1` [Example I-61, (R)-3-(4-ethynyl-6-(4-methylpiperazin-1-yl)pyrimidin-2-yl)-10-methyl-9,10,11,12-tetrahydro-8H-[1,4]diazepino[5′,6′:4,5]thieno[3,2-f]quinolin-8-one], with 73 nM; and `C=Cc1cc(N2CCN(C)CC2)nc(-c2ccc3c(ccc4sc5c(c43)NC[C@@H](C)NC5=O)n2)n1` [Example I-62, (R)-10-methyl-3-(4-(4-methylpiperazin-1-yl)-6-vinylpyrimidin-2-yl)-9,10,11,12-tetrahydro-8H-[1,4]diazepino[5′,6′:4,5]thieno[3,2-f]quinolin-8-one], with 27 nM; and `C[C@@H]1CNc2c(sc3ccc4nc(-c5cc(C#CC(C)(C)N)nc(Cl)n5)ccc4c23)C(=O)N1` [Example I-63, (R)-3-(6-(3-amino-3-methylbut-1-yn-1-yl)-2-chloropyrimidin-4-yl)-10-methyl-9,10,11,12-tetrahydro-8H-[1,4]diazepino[5′,6′:4,5]thieno[3,2-f]quinolin-8-one], with 145 nM. `C[C@@H]1CNc2c(sc3ccc4nc(-c5cc(Cl)nc(C#CC(C)(C)N)n5)ccc4c23)C(=O)N1` [Example I-64, (R)-3-(2-(3-amino-3-methylbut-1-yn-1-yl)-6-chloropyrimidin-4-yl)-10-methyl-9,10,11,12-tetrahydro-8H-[1,4]diazepino[5′,6′:4,5]thieno[3,2-f]quinolin-8-one]: the IC50 came to 4 nM. Under `C#Cc1nc(C#CC(C)(C)N)cc(-c2ccc3c(ccc4sc5c(c43)NC[C@@H](C)NC5=O)n2)n1` [Example I-65, (R)-3-(6-(3-amino-3-methylbut-1-yn-1-yl)-2-ethynylpyrimidin-4-yl)-10-methyl-9,10,11,12-tetrahydro-8H-[1,4]diazepino[5′,6′:4,5]thieno[3,2-f]quinolin-8-one] stands 132 nM. Under `C=Cc1cc(-c2ccc3c(ccc4sc5c(c43)NC[C@@H](C)NC5=O)n2)nc(C#CC(C)(C)N)n1` [Example I-66, (R)-3-(2-(3-amino-3-methylbut-1-yn-1-yl)-6-vinylpyrimidin-4-yl)-10-methyl-9,10,11,12-tetrahydro-8H-[1,4]diazepino[5′,6′:4,5]thieno[3,2-f]quinolin-8-one] stands 9 nM.
